We go through 2 compounds from patent US5567590A, “Methods of diagnosing steroid-resistant inflammation due to type I or type II nuclear glucocorticoid receptor binding abnormalities” (National Jewish Center for Immunology and Respiratory, priority 1994, dated 1996).

Test [1] is described as follows: 7-10 day course of high dose oral Prednisone in poorly controlled asthmatics. The test is classed as in vivo, human. The note with it: Post-Pn. On the procedure: 10 poorly controlled asthmatics received a 7-10 day course of high dose oral Prednisone (20-30 mg po bid). Following prednisone treatment, PBMC's were obtained as generally described in Experiment 1 and the whole cell GR number (sites/cell) and binding affinity (Kd, nmol/l) were determined using techniques generally described in Experiment 1. In addition, spirometry and serum ECP levels were measured pre- and post-Prednisone treatment. […]

The nature of test [2]: FEV1 response of SS and SR asthma patients to a 1 week course of oral prednisone. The test is classed as in vivo, human. The text has this: Patients with a diagnosis of asthma, based on American Thoracic Society criteria, were selected for evaluation. […]. Patients were excluded if they had evidence for other types of lung disease, pregnancy, suspected noncompliance with medical care, or concurrent therapy with medications that alter glucocorticoid metabolism, such as anti-convulsants or erythromycin. A complete set of pulmonary function tests with lung volume, methacholine bronchial challenge, and diffusion capacity/total lung capacity ratio were obtained if the diagnosis of asthma required confirmation.
Patients were classified as SS or SR based on their prebronchodilator morning FEV1 and their response to a course of oral prednisone. […] All SR asthma patients had glucocorticoid pharmacokinetic studies to exclude those patients with an abnormality in prednisone absorption or metabolism.

Test [3] has as its system PBMC from normal donors. The note with it: MPN 10^-6 to 10^-9 M, 72 hours. On the procedure: PBMC were then analyzed for GR-binding parameters or capacity to proliferate in the absence and presence of methylprednisone (MPN). […] After 72 hours of incubation, proliferation was measured by [^3 H]TdR incorporation (1 μCi/well, 6.7 Ci/mmol; ICN, Irvine, Calif.) during the last 6 hours of culture. Proliferation response was measured as the percent of control incorporation of [^3 ]TdR using the formula: [formula] GR-Binding Studies
PBMC from four normal donors were preincubated in the absence and presence of IL-2+IL-4, or IL-2 alone, for 48 hours and then subsequently stimulated with PMA (0.01 μM) and I (0.05 μM) in the presence and absence of MPN ranging in concentration from 10^-6 to 10^-9 M for another 72 hours. […] Each point represents the mean±SEM.

Like-named read-outs stand apart in the source and are kept apart here.

For the compound `C[C@]12C=CC(=O)C=C1CC[C@@H]1[C@@H]2C(=O)C[C@@]2(C)[C@H]1CC[C@]2(O)C(=O)CO` [Prednisone], the “GR Number” value in test [1] (PBMC, 10 poorly controlled asthmatics, Pre-Pn 8029 ± 1875, p 0.024) is 3575 ± 1094 sites/cell. This compound also had an ECP in test [1] (serum, Pre-Pn 16.1 ± 1.9, p 0.045) of 10.8 ± 1.2 µg/L. Further, the “FEV1 /FVC Ratio” value in test [1] (Pre-Pn 0.60 ± 0.02, p 0.014) is listed as 0.70 ± 0.01. Besides, the FEV1 in test [1] (Pre-Pn 63.8 ± 3.2%, p 0.008) was 82.6 ± 4.4 % predicted. Besides, the “FEV1 after steroid burst” value is listed as 57 in test [2] (SR asthma patients (n 17), FEV1 before BD 58 % predicted) and 82 in test [2] (SS asthma patients (n 12), FEV1 before BD 47 % predicted).
As for methylprednisone [MPN], the “effect of MPN on PMA/I-induced proliferation” value is given as “significant dose-dependent inhibition of proliferation” in test [3] (PBMC preincubated 48 hours in culture medium alone) and “significantly decreased inhibitory effect” in test [3] (PBMC preincubated 48 hours with IL-2+IL-4, compared with medium alone).
